Data published in US11267825B2 (AICURIS GMBH & CO. KG, priority 2017, dated 2022).

Tests used:
HBV = assay: Determination of HBV DNA from the supernatants of HepAD38 cells (anti-HBV activity); assay type: cell-based, hepatitis B virus; conditions: HBV DNA in HepAD38 supernatant at day 6; read-out: Cell Activity (EC50)
Summary of the method: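 EC50 values were obtained by non-linear regression of HBV DNA copy numbers measured by qPCR against pCH-9/3091 plasmid standards. The DNA came from filtered supernatants collected on day 6. Before that, tetracycline-withdrawn HepAD38 cells had been exposed to serial half-log compound dilutions, with tetracycline-treated cells as the non-producing control.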

HBV core protein = HBV core protein (UniProt P03146); assay type: biochemical; conditions: BODIPY-FL labelled core protein, assembly started with NaCl, read after 6 min; read-out: Assembly Activity (IC50)
Summary of the method: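 Compounds tested at 8 concentrations in 0.5-log steps from 100, 31.6 or 10 μM against 1.0–2.0 μM BODIPY-FL-labelled Cys150 core dimers (residues 1–149), 50 mM HEPES pH 7.5. NaCl ([…] final) triggered assembly; quenching read at 6 min, 477/525 nm, with 2.5 M and 0 M NaCl as controls; EC50 by nonlinear fit.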

HepAD38 cells = assay: Cell viability assay (AlamarBlue) in HepAD38 cells; conditions: HepAD38 cells in the presence of 0.3 μg/ml tetracycline, six days incubation

Chain of HBV core protein (P03146 whole entry, looked up, the tested form may be a part): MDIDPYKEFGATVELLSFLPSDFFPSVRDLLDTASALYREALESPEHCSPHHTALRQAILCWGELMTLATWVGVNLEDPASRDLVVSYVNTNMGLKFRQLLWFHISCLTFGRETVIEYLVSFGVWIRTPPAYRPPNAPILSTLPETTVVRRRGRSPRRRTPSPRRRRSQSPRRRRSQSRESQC

In the case of `O=C(Nc1nc2c(s1)CN(C(=O)c1cc3ccccc3[nH]1)CC2)C1[C@H]2COC[C@@H]12` (stereo partly drawn) [Example 358, (1R,5S,6R)—N-[5-(1H-indole-2-carbonyl)-4H,5H,6H,7H-[1,3]thiazolo[5,4-c]pyridin-2-yl]-3-oxabicyclo[3.1.0]hexane-6-carboxamide], the EC50 (HBV) is reported as < 1 µM, the IC50 (HBV core protein) is reported as < 5 µM and the CC50 (HepAD38 cells) is reported as > 10 µM.
For `O=C(c1cc2ccccc2[nH]1)N1CCc2nc(N[C@H]3C[C@H](O)C3)sc2C1` [Example 397, (1r,3r)-3-{[5-(1H-indole-2-carbonyl)-4H,5H,6H,7H-[1,3]thiazolo[5,4-c]pyridin-2-yl]amino}cyclobutan-1-ol], the EC50 (HBV) was < 1 µM, the IC50 (HBV core protein) was < 5 µM and the CC50 (HepAD38 cells) was > 10 µM.
For “(2S)-2-amino-3-{[5-(1H-indole-2-carbonyl)-4H,5H,6H,7H-[1,3]thiazolo[5,4-c]pyridin-2-yl]carbamoyl}propanoic acid [Example 444]”, the EC50 (HBV) was < 1 µM, the IC50 (HBV core protein) was 5 to 10 µM and the CC50 (HepAD38 cells) was > 10 µM.
For `O=C(c1cc2ccc(Cl)cc2[nH]1)N1CCc2nc(N[C@H]3C[C@H](O)C3)sc2C1` [Example 357, (1r,3r)-3-{[5-(6-chloro-1H-indole-2-carbonyl)-4H,5H,6H,7H-[1,3]thiazolo[5,4-c]pyridin-2-yl]amino}cyclobutan-1-ol], the EC50 (HBV) was < 1 µM, the IC50 (HBV core protein) was < 5 µM and the CC50 (HepAD38 cells) was > 10 µM.
For `O=C(c1cc2c(Cl)c(F)ccc2[nH]1)N1CCc2nc(N[C@H]3C[C@H](O)C3)sc2C1` [Example 355, (1r,3r)-3-{[5-(4-chloro-5-fluoro-1H-indole-2-carbonyl)-4H,5H,6H,7H-[1,3]thiazolo[5,4-c]pyridin-2-yl]amino}cyclobutan-1-ol], the EC50 (HBV) was < 1 µM, the IC50 (HBV core protein) was < 5 µM and the CC50 (HepAD38 cells) was > 10 µM.
For `O=C(c1cc2c(F)c(F)ccc2[nH]1)N1CCc2nc(N[C@H]3CC[C@@H](O)CC3)sc2C1` [Example 395, (1s,4s)-4-{[5-(4,5-difluoro-1H-indole-2-carbonyl)-4H,5H,6H,7H-[1,3]thiazolo[5,4-c]pyridin-2-yl]amino}cyclohexan-1-ol], the EC50 (HBV) was < 1 µM, the IC50 (HBV core protein) was < 5 µM and the CC50 (HepAD38 cells) was > 10 µM.
In the case of `O=C(Nc1nc2c(s1)CN(C(=O)c1cc3ccccc3[nH]1)CC2)C1[C@H]2CNC[C@@H]12` (stereo partly drawn) [Example 360, (1R,5S,6S)—N-[5-(1H-indole-2-carbonyl)-4H,5H,6H,7H-[1,3]thiazolo[5,4-c]pyridin-2-yl]-3-azabicyclo[3.1.0]hexane-6-carboxamide], the EC50 (HBV) is reported as < 1 µM, the IC50 (HBV core protein) is reported as < 5 µM and the CC50 (HepAD38 cells) is reported as > 10 µM.
For `O=C(c1cc2c(Cl)cc(F)cc2[nH]1)N1CCc2nc(N[C@H]3C[C@H](O)C3)sc2C1` [Example 356, (1r,3r)-3-{[5-(4-chloro-6-fluoro-1H-indole-2-carbonyl)-4H,5H,6H,7H-[1,3]thiazolo[5,4-c]pyridin-2-yl]amino}cyclobutan-1-ol], the EC50 (HBV) was < 1 µM, the IC50 (HBV core protein) was < 5 µM and the CC50 (HepAD38 cells) was > 10 µM.
For `O=C(Nc1nc2c(s1)CN(C(=O)c1cc3ccccc3[nH]1)CC2)C1[C@H]2CNC[C@@H]12` (stereo partly drawn) [Example 359, (1R,5S,6R)—N-[5-(1H-indole-2-carbonyl)-4H,5H,6H,7H-[1,3]thiazolo[5,4-c]pyridin-2-yl]-3-azabicyclo[3.1.0]hexane-6-carboxamide], the EC50 (HBV) was < 1 µM, the IC50 (HBV core protein) was < 5 µM and the CC50 (HepAD38 cells) was > 10 µM.
With “(2S)-2-amino-4-{[5-(1H-indole-2-carbonyl)-4H,5H,6H,7H-[1,3]thiazolo[5,4-c]pyridin-2-yl]carbamoyl}butanoic acid [Example 354]” the EC50 (HBV) was < 1 µM, the IC50 (HBV core protein) was < 5 µM and the CC50 (HepAD38 cells) was > 10 µM.
